Results as given in patent US4693884A, “Technetium-99m triphosphonates and tetraphosphonates for the scintigraphic visualization of res-containing organs and lymph vessels, and a process for their preparation” (Hoechst Aktiengesellschaft, priority 1982, dated 1987).
One block for each compound: values may come before it.

Assays:
[1] = Comparison of 99mTc TPB, 99mTc PTP and 99mTc phytate after intravenous injection to dogs; assay type: in vivo
[2] = Example 6: distribution of activity over the organs in rats, PTP; assay type: in vivo, Sprague-Dawley rats; conditions: 30 min after injection; femoral vein; mean, n=6
Experimental: 3.5 g of 1,1,3,3-propanetetraphosphonic acid (PTP) are dissolved in 250 ml of double-distilled water, and the solution is adjusted to pH 6 with 1N NaOH. 210 mg of SnCl2.2H2 O, which are dissolved in 4.2 ml of 0.2N HCl, are added to this solution, and the pH is again adjusted to 6. The mixture is made up to 350 ml and individual 1 ml portions are prepared. (All the operations up to preparation of the individual portions are carried out under protective N2 gas.) The contents are frozen and freeze-dried. One unit contains 10 mg of PTP and 0.6 mg of SnCl2.2H2 O.
After storing for some weeks, the lyophilizate is dissolved in 10 ml of physiologic saline which contains 2 mCi of ^99m Tc-pertechnetate. After 30 min, Sprague-Dawley rats (n=6) weighing about 200 g each receive 0.1 ml of this solution injected into the femoral vein. The animals are sacrificed with ether 30 min after injection, and the distribution of the activity over the organs is determined. The mean figures below result (as percentage of the dose administered): […]

[3] = Organ distribution of 99mTc-labeled substances in rats 30 minutes after injection as a function of the amount of substance administered; assay type: in vivo; conditions: for Blood/ml / Kidneys / Liver / Lung / Remainder of body / Spleen / Thyroid / tissue uptake at 0.5 h: 30 min after injection, n = 3; for tissue uptake at 0.5 h: rat, femur, iv, 0.05 mg
Experimental: Assuming that 2-20 mg of TPB, ETP, PTP or phytate are administered to humans, and assuming that the weight of human is 80 kg, this corresponds to an amount administered of 25-250 μg/kg of body weight. Calculating on the basis of the body weight of rats weighing 200 g, then administration of 5-50 μg of TPB, ETP, PTP or phytate per rat exactly reflects the relationships.
Organ distribution of ^99m Tc TPB, ^99m TC ETP and ^99m Tc
phytate in rats (n = 3) 30
minutes after injection as a function of the amount of substance
(all data as a percentage of the amount of activity administered)

[4] = Accumulation of phosphoric acid derivatives investigated as technetium-99m diagnostic agents (bone, liver, RES); conditions: in vivo
Description: It is possible to use phosphoric acid derivatives, particularly organic phosphonic acid derivatives, for bone scintigraphy. Many compounds have been investigated in the search for derivatives suitable as a technetium-99m diagnostic agent for bone.

[5] = Example 7: elimination from the blood and renal excretion; assay type: in vivo, dog (beagle)
Experimental: (§1) A labeling unit prepared as in Example 6 is made ready for injection with 5 ml of physiologic saline containing 10 mCi of ^99m Tc-pertechnetate. 1 ml of this solution is injected into the ear vein of a dog (beagle) weighing 18 kg, and the change in activity with time over the abdominal cavity is followed using a gamma camera by the ROI technique. It emerges that the uptake of activity by the liver is complete after about 10 min. The lung and kidneys are not imaged.
The elimination from the blood and the renal excretion are also determined on the same animal. […] About 2.3% of the administered activity is excreted with the urine within the first 8 hours.

[6] = Example 7: change in activity over the abdominal cavity followed with gamma camera (ROI technique); assay type: in vivo, dog (beagle); conditions: ear vein
Experimental: as §1

[7] = in vivo; cited from earlier work
[8] = second amount column (printed 50 μg)
[9] = third amount column (printed 50 μg)

excretion of activity with the urine ([1]; 30 min after injection, intravenous, dogs): 0.05 % of the test dose | excretion of activity with the urine, compared with phytate ([1]; intravenous, dogs): markedly less | decrease in activity via the liver after accumulation in the liver is complete ([1]; intravenous, dogs, compared with phytate): slower | Kidneys [2]: 0.067 percentage of the dose adminis | Liver [2]: 94.0 percentage of the dose adminis | Remainder of body [2]: 4.8 percentage of the dose adminis | Spleen [2]: 1.9 percentage of the dose adminis | Thyroid [2]: 0.034 percentage of the dose adminis | bladder + urine [2]: 0.023 percentage of the dose adminis | blood (1 ml) [2]: 0.083 percentage of the dose adminis | bone [2]: 0.7 percentage of the dose adminis | lungs [2]: 0.23 percentage of the dose adminis | Blood/ml ([3]; (50 μg)): 0.055 percentage of the amount of ac | Blood/ml [3, 8]: 0.11 percentage of the amount of ac | Blood/ml [3, 9]: 0.086 percentage of the amount of ac | accumulation of activity in the kidneys, blood, femur and remainder of the body compared with phytate ([3]; all amounts of substance investigated): clearly lower than with phytate | tissue uptake at 0.5 h ([3]; (50 μg)): 0.052 %ID/g | tissue uptake at 0.5 h [3, 8]: 0.088 %ID/g | tissue uptake at 0.5 h [3, 9]: 0.089 %ID/g | accumulation in bone [4]: virtually not at all | clearance from the blood, half-life t1 ([5]; ear vein, first phase): 3.25 min | share of phase t1 in clearance from the blood ([5]; ear vein, first phase): 97% | clearance from the blood, half-life t2 ([5]; ear vein, second phase): 20.3 min | share of phase t2 in clearance from the blood ([5]; ear vein, second phase): 2.4% | clearance from the blood, half-life t3 ([5]; ear vein, third phase): 500 min | share of phase t3 in clearance from the blood ([5]; ear vein, third phase): 0.6% | administered activity excreted with the urine ([5]; within the first 8 hours): About 2.3 % of the administered activity | time at which uptake of activity by the liver is complete [6]: about 10 min
Compound: O=P(O)(O)C(CC(P(=O)(O)O)P(=O)(O)O)P(=O)(O)O [PTP, propane-1,1,3,3-tetraphosphonic acid]
Kidneys ([3]; (50 μg)): 0.16 percentage of the amount of activity administered | Liver ([3]; (50 μg)): 91.8 percentage of the amount of activity administered | Lung ([3]; (50 μg)): 0.30 percentage of the amount of activity administered | Remainder of body ([3]; (50 μg)): 9.3 percentage of the amount of activity administered | Spleen ([3]; (50 μg)): 1.31 percentage of the amount of activity administered | Thyroid ([3]; (50 μg)): 0.05 percentage of the amount of activity administered | Kidneys [3, 8]: 0.37 percentage of the amount of activity administered | Liver [3, 8]: 84.2 percentage of the amount of activity administered | Lung [3, 8]: 0.45 percentage of the amount of activity administered | Remainder of body [3, 8]: 16.0 percentage of the amount of activity administered | Spleen [3, 8]: 1.23 percentage of the amount of activity administered | Thyroid [3, 8]: 0.04 percentage of the amount of activity administered | Kidneys [3, 9]: 0.38 percentage of the amount of activity administered | Liver [3, 9]: 82.7 percentage of the amount of activity administered | Lung [3, 9]: 0.43 percentage of the amount of activity administered | Remainder of body [3, 9]: 18.4 percentage of the amount of activity administered | Spleen [3, 9]: 1.10 percentage of the amount of activity administered | Thyroid [3, 9]: 0.05 percentage of the amount of activity administered | suitability as diagnostic agent for visualization of RES-containing organs compared with 99mTc phytate ([3]; deduction from the animal experiments): unambiguously superior | accumulation in the liver [4]: very preferentially accumulated in the liver

excretion of activity with the urine ([1]; dog, in vivo, iv, 0.5 h): 6.6 % of the test dose | accumulation in bone [4]: higher | accumulation in the RES [4]: lower
Compound: phytate [reference compound]
accumulation of activity in the RES [7]: low compared with the products mentioned above
